Data reported in US10039753B2, “Imidazo[4,5-c]quinoline and imidazo[4,5-c][1,5]naphthyridine derivatives as LRRK2 inhibitors” (Pfizer Inc., priority 2015, dated 2018).
Where a name gives a salt, the structure may show the parent alone.

Key:
[1] = target: T1, GST-tagged truncated LRRK2 (Homo sapiens, UniProt Q5S007); experiment: LRRK2 Assay, Format 2 (Lantha Screen), WT; format: biochemical; details: geometric mean of 2-4 determinations unless otherwise indicated (a: >=5; b: single determination)
T1 construct: GST-tagged truncated LRRK2 from Invitrogen (Cat # PV4874); GST; purchased Invitrogen PV4874

[2] = target: mutant G2019S LRRK2 (Homo sapiens, UniProt Q5S007, G2019S); experiment: LRRK2 Assay, Format 2 (Lantha Screen), G2019S mutant; format: biochemical; parameters: purchased Invitrogen PV4881; details: geometric mean of 2-4 determinations unless otherwise indicated (a: >=5; b: single determination); read-out: LRRK2, Format 2 G2019S IC50
Chain of mutant G2019S LRRK2 (Q5S007 970-2527 G2019S limits assumed): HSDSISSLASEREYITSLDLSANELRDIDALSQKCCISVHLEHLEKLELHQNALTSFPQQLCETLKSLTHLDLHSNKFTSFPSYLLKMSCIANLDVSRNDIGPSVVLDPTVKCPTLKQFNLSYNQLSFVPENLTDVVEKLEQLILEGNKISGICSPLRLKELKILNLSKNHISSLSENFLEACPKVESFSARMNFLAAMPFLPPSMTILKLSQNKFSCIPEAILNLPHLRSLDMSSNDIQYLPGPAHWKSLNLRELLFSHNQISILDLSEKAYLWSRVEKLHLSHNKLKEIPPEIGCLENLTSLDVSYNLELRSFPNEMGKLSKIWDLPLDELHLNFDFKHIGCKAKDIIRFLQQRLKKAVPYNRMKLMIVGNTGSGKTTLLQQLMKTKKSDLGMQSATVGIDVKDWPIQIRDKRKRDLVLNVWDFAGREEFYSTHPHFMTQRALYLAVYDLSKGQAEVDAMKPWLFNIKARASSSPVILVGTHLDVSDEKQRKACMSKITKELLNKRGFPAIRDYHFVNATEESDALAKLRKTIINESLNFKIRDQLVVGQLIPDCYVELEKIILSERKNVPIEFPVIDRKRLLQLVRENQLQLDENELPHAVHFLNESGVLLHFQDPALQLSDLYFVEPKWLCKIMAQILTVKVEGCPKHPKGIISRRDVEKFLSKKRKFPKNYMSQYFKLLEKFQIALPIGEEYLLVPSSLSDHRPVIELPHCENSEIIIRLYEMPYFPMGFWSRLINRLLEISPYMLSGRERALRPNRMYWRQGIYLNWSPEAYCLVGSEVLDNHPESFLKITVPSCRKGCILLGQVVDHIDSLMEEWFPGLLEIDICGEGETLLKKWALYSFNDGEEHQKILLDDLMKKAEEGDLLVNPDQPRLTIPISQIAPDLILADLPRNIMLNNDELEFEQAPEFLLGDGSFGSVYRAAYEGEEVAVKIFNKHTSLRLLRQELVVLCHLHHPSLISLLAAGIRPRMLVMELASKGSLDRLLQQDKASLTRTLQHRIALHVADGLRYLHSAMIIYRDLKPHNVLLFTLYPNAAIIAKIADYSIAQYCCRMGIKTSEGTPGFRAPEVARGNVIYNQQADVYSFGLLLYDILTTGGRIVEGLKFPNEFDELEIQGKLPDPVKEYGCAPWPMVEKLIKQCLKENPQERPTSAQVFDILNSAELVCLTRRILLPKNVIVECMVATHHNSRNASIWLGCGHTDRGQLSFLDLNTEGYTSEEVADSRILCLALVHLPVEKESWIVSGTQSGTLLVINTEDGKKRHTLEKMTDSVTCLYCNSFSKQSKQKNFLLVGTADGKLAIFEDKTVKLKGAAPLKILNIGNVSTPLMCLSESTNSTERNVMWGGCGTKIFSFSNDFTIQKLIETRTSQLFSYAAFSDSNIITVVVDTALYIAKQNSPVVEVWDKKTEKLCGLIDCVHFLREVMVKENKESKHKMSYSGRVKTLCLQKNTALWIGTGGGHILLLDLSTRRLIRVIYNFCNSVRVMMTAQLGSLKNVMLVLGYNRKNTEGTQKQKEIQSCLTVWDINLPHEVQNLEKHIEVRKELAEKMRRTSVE

T1 sequence (Q5S007 970-2527 limits assumed): as the sequence (Q5S007 970-2527 G2019S limits assumed) above, with S1050G counted along it

Structure (SMILES) | IC50 [1] [nM] | IC50 [2] [nM]
C[C@@H]1C[C@H](n2c(Cn3cc(C(F)(F)F)nn3)nc3cnc4ccc(C#N)cc4c32)CCO1 [Example 175, 1-[(2R,4R)-2-methyltetrahydro-2H-pyran-4-yl]-2-{[4-(trifluoromethyl)-1H-1,2,3-triazol-1-yl]methyl}-1H-imidazo[4,5-c]quinoline-8-carbonitrile] | 13.4 | 12.2
COc1cnn(Cc2nc3cnc4ccc(F)cc4c3n2[C@@H]2CCO[C@H](C)C2)c1 [Example 179, 8-fluoro-2-[(4-methoxy-1H-pyrazol-1-yl)methyl]-1-[(2R,4R)-2-methyltetrahydro-2H-pyran-4-yl]-1H-imidazo[4,5-c]quinoline] | 14 | 12.6
CO[C@H]1C[C@@H](n2c(Cn3cc(C)cn3)nc3cnc4ccc(Cl)cc4c32)C1 [Example 180, 8-chloro-1-[(1s,3s)-3-methoxycyclobutyl]-2-[(4-methyl-1H-pyrazol-1-yl)methyl]-1H-imidazo[4,5-c]quinoline] | 30.4 | 29.9
CO[C@H]1C[C@@H](n2c(Cn3cc(C)nn3)nc3cnc4ccc(Cl)cc4c32)C1 [Example 183, 8-chloro-1-[(1s,3s)-3-methoxycyclobutyl]-2-[(4-methyl-1H-1,2,3-triazol-1-yl)methyl]-1H-imidazo[4,5-c]quinoline] | 33.8 | 30.8
CCC(F)(F)Cn1c(Cc2cnccn2)nc2cnc3ccc(Cl)cc3c21 [Example 184, 8-chloro-1-(2,2-difluorobutyl)-2-(pyrazin-2-ylmethyl)-1H-imidazo[4,5-c]quinoline] | 34.3 | 22.8
CCC(F)(F)Cn1c(Cn2cc(C)nn2)nc2cnc3ccc(Cl)cc3c21 [Example 186, 8-chloro-1-(2,2-difluorobutyl)-2-[(4-methyl-1H-1,2,3-triazol-1-yl)methyl]-1H-imidazo[4,5-c]quinoline] | 22.5 | 16.4
Cc1cn(Cc2nc3cnc4ccc(Cl)cc4c3n2C2CCC2(F)F)nn1 (stereo not drawn) [Example 187, 8-chloro-1-(2,2-difluorocyclobutyl)-2-[(4-methyl-1H-1,2,3-triazol-1-yl)methyl]-1H-imidazo[4,5-c]quinoline] | 28.1 | 33.3
Cc1cnn(Cc2nc3cnc4ccc(C#N)cc4c3n2[C@H]2CCN(C)C2)c1 [Example 190, 2-[(4-methyl-1H-pyrazol-1-yl)methyl]-1-[(3S)-1-methylpyrrolidin-3-yl]-1H-imidazo[4,5-c]quinoline-8-carbonitrile] | 26.6 | 26.2
C[C@@H]1C[C@H](n2c(Cc3cnns3)nc3cnc4ccc(Cl)cc4c32)CCO1 [Example 193, 8-chloro-1-[(2R,4R)-2-methyltetrahydro-2H-pyran-4-yl]-2-(1,2,3-thiadiazol-5-ylmethyl)-1H-imidazo[4,5-c]quinoline] | 37.3 | 32.6
Cc1cnn(Cc2nc3cnc4ccc(C#N)cc4c3n2[C@@H]2CCN(C)C2)c1 [Example 194, 2-[(4-methyl-1H-pyrazol-1-yl)methyl]-1-[(3R)-1-methylpyrrolidin-3-yl]-1H-imidazo[4,5-c]quinoline-8-carbonitrile] | 19.9 | 25.1
Cc1cnn(Cc2nc3cnc4ccc(F)cc4c3n2[C@@H]2CCO[C@H](C)C2)c1 [Example 198, 8-fluoro-2-[(4-methyl-1H-pyrazol-1-yl)methyl]-1-[(2R,4R)-2-methyltetrahydro-2H-pyran-4-yl]-1H-imidazo[4,5-c]quinoline] | 15.2 | 16.8
Cc1cn(Cc2nc3cnc4ccc(F)cc4c3n2[C@@H]2CCO[C@H](C)C2)nn1 [Example 199, 8-fluoro-1-[(2R,4R)-2-methyltetrahydro-2H-pyran-4-yl]-2-[(4-methyl-1H-1,2,3-triazol-1-yl)methyl]-1H-imidazo[4,5-c]quinoline] | 10.3 | 11.8
Cc1cc(Cc2nc3cnc4ccc(F)cc4c3n2[C@@H]2CCO[C@H](C)C2)no1 [Example 200, 8-fluoro-2-[(5-methyl-1,2-oxazol-3-yl)methyl]-1-[(2R,4R)-2-methyltetrahydro-2H-pyran-4-yl]-1H-imidazo[4,5-c]quinoline] | 12.4 | 14.3
Cc1nnn(Cc2nc3cnc4ccc(Cl)cc4c3n2[C@@H]2CCO[C@H](C)C2)n1 [Example 206, 8-chloro-1-[(2R,4R)-2-methyltetrahydro-2H-pyran-4-yl]-2-[(5-methyl-2H-tetrazol-2-yl)methyl]-1H-imidazo[4,5-c]quinoline] | 10.4 | 9.57
C[C@@H]1C[C@H](n2c(Cc3ccc(C(F)(F)F)cn3)nc3cnc4ccc(C#N)cc4c32)CCO1 [Example 208, 1-[(2R,4R)-2-methyltetrahydro-2H-pyran-4-yl]-2-{[5-(trifluoromethyl)pyridin-2-yl]methyl}-1H-imidazo[4,5-c]quinoline-8-carbonitrile] | 15 | 14.3
Cc1cnn(Cc2nc3cnc4ccc(Cl)cc4c3n2[C@@H]2CCO[C@H](C)C2)c1 [Example 212, 8-chloro-2-[(4-methyl-1H-pyrazol-1-yl)methyl]-1-[(2R,4R)-2-methyltetrahydro-2H-pyran-4-yl]-1H-imidazo[4,5-c]quinoline] | 8.47 | 8.15
Cc1cc(Cc2nc3cnc4ccc(C#N)cc4c3n2C2CCC2)no1 [Example 216, 1-cyclobutyl-2-[(5-methyl-1,2-oxazol-3-yl)methyl]-1H-imidazo[4,5-c]quinoline-8-carbonitrile, formate salt] | 26.6 | 38.6
Cc1cc(Cc2nc3cnc4ccc(C#N)cc4c3n2[C@H]2CCN(C)C2)no1 [Example 218, 2-[(5-methyl-1,2-oxazol-3-yl)methyl]-1-[(3S)-1-methylpyrrolidin-3-yl]-1H-imidazo[4,5-c]quinoline-8-carbonitrile, formate salt] | 21.4 | 32.2
CO[C@H]1CC[C@H](n2c(Cc3cc(C)on3)nc3cnc4ccc(C#N)cc4c32)CC1 [Example 219, 1-(trans-4-methoxycyclohexyl)-2-[(5-methyl-1,2-oxazol-3-yl)methyl]-1H-imidazo[4,5-c]quinoline-8-carbonitrile, formate salt] | 246 | 126

Now those with a lower IC50 [1], led by results:

IC50 [1] [nM] | IC50 [2] [nM] | Structure (SMILES)
5.64 | 3.32 | C[C@@H]1C[C@H](n2c(Cc3ccncn3)nc3cnc4ccc(C(F)(F)F)cc4c32)CCO1 [Example 178, 1-[(2R,4R)-2-methyltetrahydro-2H-pyran-4-yl]-2-(pyrimidin-4-ylmethyl)-8-(trifluoromethyl)-1H-imidazo[4,5-c]quinoline]
5.04 | 3.54 | C[C@@H]1C[C@H](n2c(Cc3cc(CF)on3)nc3cnc4ccc(C#N)cc4c32)CCO1 [Example 189, 2-{[5-(fluoromethyl)-1,2-oxazol-3-yl]methyl}-1-[(2R,4R)-2-methyltetrahydro-2H-pyran-4-yl]-1H-imidazo[4,5-c]quinoline-8-carbonitrile, trifluoroacetate salt]
3.46 | 2.28 | C[C@@H]1C[C@H](n2c(Cc3csnn3)nc3cnc4ccc(C#N)cc4c32)CCO1 [Example 195, 1-[(2R,4R)-2-methyltetrahydro-2H-pyran-4-yl]-2-(1,2,3-thiadiazol-4-ylmethyl)-1H-imidazo[4,5-c]quinoline-8-carbonitrile]
6.52 | 6.09 | Cc1cnc(Cc2nc3cnc4ccc(C#N)cc4c3n2[C@@H]2CCO[C@H](C)C2)s1 [Example 205, 1-[(2R,4R)-2-methyltetrahydro-2H-pyran-4-yl]-2-[(5-methyl-1,3-thiazol-2-yl)methyl]-1H-imidazo[4,5-c]quinoline-8-carbonitrile]
8.02 | 9.93 | CCc1cnn(Cc2nc3cnc4ccc(C#N)cc4c3n2CC(C)(F)F)c1 [Example 209, 1-(2,2-difluoropropyl)-2-[(4-ethyl-1H-pyrazol-1-yl)methyl]-1H-imidazo[4,5-c]quinoline-8-carbonitrile]
7.04 | 7.63 | COc1cnn(Cc2nc3cnc4ccc(C#N)cc4c3n2CC(C)(F)F)c1 [Example 210, 1-(2,2-difluoropropyl)-2-[(4-methoxy-1H-pyrazol-1-yl)methyl]-1H-imidazo[4,5-c]quinoline-8-carbonitrile]
3.38 | 7.03 | Cc1cc(Cc2nc3cnc4ccc(C#N)cc4c3n2[C@@H]2CCN(C)C2)no1 [Example 213, 2-[(5-methyl-1,2-oxazol-3-yl)methyl]-1-[(3R)-1-methylpyrrolidin-3-yl]-1H-imidazo[4,5-c]quinoline-8-carbonitrile, formate salt]
7.67 | 9.67 | C[C@@H]1C[C@H](n2c(C(F)(F)c3ccccn3)nc3cnc4ccc(Cl)cc4c32)CCO1 [Example 214, 8-chloro-2-[difluoro(pyridin-2-yl)methyl]-1-[(2R,4R)-2-methyltetrahydro-2H-pyran-4-yl]-1H-imidazo[4,5-c]quinoline, formate salt]
5.43 | 11.1 | Cc1cc(Cc2nc3cnc4ccc(C#N)cc4c3n2C2CCN(C)C2)no1 (stereo not drawn) [Example 217, 2-[(5-methyl-1,2-oxazol-3-yl)methyl]-1-(1-methylpyrrolidin-3-yl)-1H-imidazo[4,5-c]quinoline-8-carbonitrile, formate salt]
4.81 | 5.03 | C[C@@H]1C[C@H](n2c(C(F)c3csnn3)nc3cnc4ccc(Cl)cc4c32)CCO1 (stereo partly drawn) [Example 220, 8-chloro-2-[fluoro(1,2,3-thiadiazol-4-yl)methyl]-1-[(2R,4R)-2-methyltetrahydro-2H-pyran-4-yl]-1H-imidazo[4,5-c]quinoline, formate salt]
3.19 | 2.89 | Cc1cc(Cc2nc3cnc4ccc(Cl)cc4c3n2[C@@H]2CCO[C@H](CF)C2)no1 [Example 221, 8-chloro-1-[(2S,4R)-2-(fluoromethyl)tetrahydro-2H-pyran-4-yl]-2-[(5-methyl-1,2-oxazol-3-yl)methyl]-1H-imidazo[4,5-c]quinoline]
